Assay results taken from BigSolDB 2.1.

O=[N+]([O-])c1ccc(N/N=C/c2ccco2)c([N+](=O)[O-])c1
solubility (mole fraction) (in water, 298.15 K): 1.4e-08

CCc1ccc(CCOc2ccc(CC3SC(=O)NC3=O)cc2)nc1.Cl (stereo not drawn)
solubility (mole fraction) (in methanol, 283.15 K): 0.00517 | solubility (mole fraction) (in methanol, 293.15 K): 0.00754 | solubility (mole fraction) (in methanol, 303.15 K): 0.0102 | solubility (mole fraction) (in methanol, 313.15 K): 0.0149 | solubility (mole fraction) (in methanol, 323.15 K): 0.0223

NCCS(=O)(=O)O
solubility (mole fraction) (in water, 298.15 K): 0.0143 | solubility (mole fraction) (in water, 303.15 K): 0.0168 | solubility (mole fraction) (in water, 308.15 K): 0.0199 | solubility (mole fraction) (in water, 313.15 K): 0.0231 | solubility (mole fraction) (in water, 318.15 K): 0.0269

C(=N\Nc1ccccc1)/c1ccc[nH]1
solubility (mole fraction) (in water, 298.15 K): 5.86e-07

O=C(O)c1cccc(C(=O)O)c1
solubility (mole fraction) (in n-propyl acetate, 303.2 K): 0.000791 | solubility (mole fraction) (in n-propyl acetate, 313.2 K): 0.000934 | solubility (mole fraction) (in n-propyl acetate, 323.2 K): 0.00108 | solubility (mole fraction) (in n-propyl acetate, 333.2 K): 0.00132 | solubility (mole fraction) (in n-propyl acetate, 343.2 K): 0.00138 | solubility (mole fraction) (in n-propyl acetate, 353.2 K): 0.0018 | solubility (mole fraction) (in n-propyl acetate, 363.2 K): 0.00215

CC(=O)OCC(=O)[C@@]12N=C(C)O[C@@H]1C[C@H]1[C@@H]3CCC4=CC(=O)C=C[C@]4(C)[C@H]3[C@@H](O)C[C@@]12C
solubility (mole fraction) (in acetone, 303.15 K): 0.00721 | solubility (mole fraction) (in ethanol, 303.15 K): 0.0024 | solubility (mole fraction) (in ethyl acetate, 303.15 K): 0.00399 | solubility (mole fraction) (in isopropanol, 303.15 K): 0.00204

C1=Cc2nc1c(-c1ccccc1)c1ccc([nH]1)c(-c1ccccc1)c1nc(c(-c3ccccc3)c3ccc([nH]3)c2-c2ccccc2)C=C1
solubility (mole fraction) (in ethanol, 303.2 K): 1.76e-06 | solubility (mole fraction) (in ethanol, 313.2 K): 2.31e-06 | solubility (mole fraction) (in ethanol, 323.2 K): 3.06e-06 | solubility (mole fraction) (in ethanol, 333.2 K): 4.01e-06

N[C@@H](C(=O)O)c1ccc(O)cc1
solubility (mole fraction) (in water, 293.25 K): 0.00196 | solubility (mole fraction) (in water, 298.13 K): 0.0021 | solubility (mole fraction) (in water, 303.15 K): 0.00224 | solubility (mole fraction) (in water, 308.18 K): 0.00241 | solubility (mole fraction) (in water, 313.15 K): 0.00255 | solubility (mole fraction) (in water, 318.17 K): 0.00272

COc1cc(/C=C/C(=O)O)cc(OC)c1O
solubility (mole fraction) (in DMSO, 298.15 K): 0.147 | solubility (mole fraction) (in DMSO, 303.15 K): 0.149 | solubility (mole fraction) (in DMSO, 308.15 K): 0.152 | solubility (mole fraction) (in DMSO, 313.15 K): 0.155 | solubility (mole fraction) (in DMSO, 318.15 K): 0.158 | solubility (mole fraction) (in ethylene glycol, 298.15 K): 0.00586 | solubility (mole fraction) (in ethylene glycol, 303.15 K): 0.0066 | solubility (mole fraction) (in ethylene glycol, 308.15 K): 0.0075 | solubility (mole fraction) (in ethylene glycol, 313.15 K): 0.00848 | solubility (mole fraction) (in ethylene glycol, 318.15 K): 0.0094

N[C@@H](Cc1cnc[nH]1)C(=O)O
solubility (mole fraction) (in water, 283.15 K): 0.0035 | solubility (mole fraction) (in water, 288.15 K): 0.00384 | solubility (mole fraction) (in water, 293.15 K): 0.00417 | solubility (mole fraction) (in water, 298.15 K): 0.00459 | solubility (mole fraction) (in water, 303.15 K): 0.0051 | solubility (mole fraction) (in water, 308.15 K): 0.00562 | solubility (mole fraction) (in water, 313.15 K): 0.00613 | solubility (mole fraction) (in water, 318.15 K): 0.00667

O=C1NC(=O)C(c2ccccc2)(c2ccccc2)N1
solubility (mole fraction) (in NMP, 293.15 K): 0.119 | solubility (mole fraction) (in NMP, 313.15 K): 0.116 | solubility (mole fraction) (in transcutol, 298.2 K): 0.00133 | solubility (mole fraction) (in transcutol, 303.2 K): 0.00144 | solubility (mole fraction) (in transcutol, 308.2 K): 0.00151 | solubility (mole fraction) (in transcutol, 313.2 K): 0.00166 | solubility (mole fraction) (in water, 293.15 K): 9.7e-07 | solubility (mole fraction) (in water, 298.2 K): 1.51e-06 | solubility (mole fraction) (in water, 303.2 K): 1.72e-06 | solubility (mole fraction) (in water, 308.2 K): 1.88e-06 | solubility (mole fraction) (in water, 313.15 K): 1.91e-06 | solubility (mole fraction) (in water, 313.2 K): 2.08e-06

C[C@@H](O)[C@H]1C(=O)N2C(C(=O)O)=C(S[C@@H]3CN[C@H](C(=O)N(C)C)C3)[C@H](C)[C@H]12.O.O.O
solubility (mole fraction) (in water, 278.15 K): 0.000408 | solubility (mole fraction) (in water, 283.15 K): 0.000445 | solubility (mole fraction) (in water, 288.15 K): 0.00051 | solubility (mole fraction) (in water, 293.15 K): 0.000556 | solubility (mole fraction) (in water, 298.15 K): 0.00066 | solubility (mole fraction) (in water, 303.15 K): 0.000782

O=c1[nH]cc(Br)c(=O)[nH]1
solubility (mole fraction) (in water, 298.15 K): 0.000272

O=P(Oc1ccccc1)(Oc1ccccc1)N1CCN(P(=O)(Oc2ccccc2)Oc2ccccc2)CC1
solubility (mole fraction) (in dichloromethane, 283.15 K): 0.00567 | solubility (mole fraction) (in dichloromethane, 288.15 K): 0.00642 | solubility (mole fraction) (in dichloromethane, 293.15 K): 0.00731 | solubility (mole fraction) (in dichloromethane, 298.15 K): 0.00843 | solubility (mole fraction) (in dichloromethane, 303.15 K): 0.0103 | solubility (mole fraction) (in dichloromethane, 308.15 K): 0.0133

OCCCCCCO
solubility (mole fraction) (in ethyl acetate, 278.15 K): 0.0148 | solubility (mole fraction) (in ethyl acetate, 283.15 K): 0.0274 | solubility (mole fraction) (in ethyl acetate, 288.15 K): 0.0387 | solubility (mole fraction) (in ethyl acetate, 293.15 K): 0.0512 | solubility (mole fraction) (in ethyl acetate, 298.15 K): 0.0834

C(=N\Nc1ccccc1)/c1cccs1
solubility (mole fraction) (in water, 298.15 K): 5.19e-07

O=[N+]([O-])c1ccc(N/N=C/c2ccc[nH]2)cc1
solubility (mole fraction) (in water, 298.15 K): 1.73e-07
